Experimental findings from ChEMBL document CHEMBL5724796, “Tm Shift (DSF) assay results for EUbOPEN Chemogenomics Library” (2024) are described below.

Values joined by “and” are separate entries in the source; they are usually repeats but may differ in a detail not shown here. Identical values can stand only once. Non-standard residues stand in square brackets, D forms with d. Residues, ends and D or L forms follow the SMILES beside them. *: point of attachment. Benzoyl(4-tBu) = CC(C)(C)c1ccc(C(=O)*)cc1; Lys(Et2) = CCN(CC)CCCC[C@H](N)C(=O)O; Nle = CCCC[C@H](N)C(=O)O; Cbz = O=C(OCc1ccccc1)*; CH2F = FC*

One assay addresses T1, Peregrin (Homo sapiens) (UniProt P55201).
T1 sequence (whole entry): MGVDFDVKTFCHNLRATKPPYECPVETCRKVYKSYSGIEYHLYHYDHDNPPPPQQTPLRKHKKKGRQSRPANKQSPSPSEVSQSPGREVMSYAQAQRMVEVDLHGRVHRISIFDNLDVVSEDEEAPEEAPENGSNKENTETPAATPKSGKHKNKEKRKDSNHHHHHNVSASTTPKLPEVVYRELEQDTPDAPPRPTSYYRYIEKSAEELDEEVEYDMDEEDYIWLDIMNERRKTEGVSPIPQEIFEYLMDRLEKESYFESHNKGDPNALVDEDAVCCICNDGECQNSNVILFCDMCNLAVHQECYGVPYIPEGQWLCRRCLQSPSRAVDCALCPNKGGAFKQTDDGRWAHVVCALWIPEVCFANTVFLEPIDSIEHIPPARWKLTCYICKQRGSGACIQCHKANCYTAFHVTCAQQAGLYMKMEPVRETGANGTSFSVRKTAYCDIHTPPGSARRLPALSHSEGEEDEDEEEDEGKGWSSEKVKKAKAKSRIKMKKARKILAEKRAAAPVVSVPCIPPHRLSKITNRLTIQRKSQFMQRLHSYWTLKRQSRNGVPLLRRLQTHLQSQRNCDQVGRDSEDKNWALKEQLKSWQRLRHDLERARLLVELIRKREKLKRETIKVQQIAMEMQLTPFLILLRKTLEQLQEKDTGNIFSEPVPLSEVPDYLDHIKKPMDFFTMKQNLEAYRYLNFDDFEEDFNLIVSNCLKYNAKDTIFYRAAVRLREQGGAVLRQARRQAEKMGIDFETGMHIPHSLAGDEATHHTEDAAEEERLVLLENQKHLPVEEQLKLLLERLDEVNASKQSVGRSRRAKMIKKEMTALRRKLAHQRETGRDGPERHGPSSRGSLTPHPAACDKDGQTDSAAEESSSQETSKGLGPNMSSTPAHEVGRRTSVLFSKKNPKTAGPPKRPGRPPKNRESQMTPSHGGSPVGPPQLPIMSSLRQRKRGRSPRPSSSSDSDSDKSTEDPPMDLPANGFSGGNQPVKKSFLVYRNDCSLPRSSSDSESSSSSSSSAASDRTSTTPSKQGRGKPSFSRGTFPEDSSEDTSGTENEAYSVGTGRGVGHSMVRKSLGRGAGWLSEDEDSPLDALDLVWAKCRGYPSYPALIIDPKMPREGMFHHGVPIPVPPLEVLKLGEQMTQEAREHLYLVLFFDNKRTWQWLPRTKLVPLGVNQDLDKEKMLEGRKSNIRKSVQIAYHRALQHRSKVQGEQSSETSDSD
The settings on record: Compound concentration 20.0 uM.

The target in assay [1] is Fibroblast growth factor receptor 2 (Homo sapiens) (UniProt P21802). The conditions noted are these: Compound concentration 20.0 uM.
Sequence of Fibroblast growth factor receptor 2 (Homo sapiens) (P21802 22-821 limits assumed): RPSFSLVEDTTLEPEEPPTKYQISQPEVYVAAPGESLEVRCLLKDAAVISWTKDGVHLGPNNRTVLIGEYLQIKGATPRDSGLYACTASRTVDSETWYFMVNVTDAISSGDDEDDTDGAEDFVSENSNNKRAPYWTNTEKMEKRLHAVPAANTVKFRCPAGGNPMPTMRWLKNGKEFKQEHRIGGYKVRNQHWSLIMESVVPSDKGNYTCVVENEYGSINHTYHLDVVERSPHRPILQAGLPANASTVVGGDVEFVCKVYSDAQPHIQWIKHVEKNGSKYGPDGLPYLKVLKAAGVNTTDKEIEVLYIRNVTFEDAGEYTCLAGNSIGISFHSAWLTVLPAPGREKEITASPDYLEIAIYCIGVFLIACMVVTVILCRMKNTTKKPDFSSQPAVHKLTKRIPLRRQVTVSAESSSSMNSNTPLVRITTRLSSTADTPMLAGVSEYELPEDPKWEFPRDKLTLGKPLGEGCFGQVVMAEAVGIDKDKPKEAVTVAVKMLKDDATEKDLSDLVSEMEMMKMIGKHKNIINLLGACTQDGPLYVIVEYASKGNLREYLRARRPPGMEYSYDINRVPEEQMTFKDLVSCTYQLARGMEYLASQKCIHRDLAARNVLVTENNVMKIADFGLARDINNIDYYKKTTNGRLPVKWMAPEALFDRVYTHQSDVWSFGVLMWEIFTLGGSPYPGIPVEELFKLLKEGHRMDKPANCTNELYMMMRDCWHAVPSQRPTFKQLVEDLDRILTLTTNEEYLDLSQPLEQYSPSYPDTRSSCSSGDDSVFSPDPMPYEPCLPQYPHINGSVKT

For the compound `COC(=O)[C@@H]1CC2=CC(=O)CC[C@]2(C)[C@@]23O[C@@H]2C[C@@]2(C)[C@@H](CC[C@@]24CCC(=O)O4)[C@H]13`, the results for the shift in melting temperature (ΔTm) (on Peregrin (Homo sapiens); in assay [1]) were -1.07 °C and 1.06 °C, respectively.
The matching figures for `CCOc1ccc(Cc2cc([C@@H]3O[C@H](CO)[C@@H](O)[C@H](O)[C@H]3O)ccc2Cl)cc1`: -0.19 °C and 0.15 °C.
The corresponding values for `COc1ccc2nc3[nH]nc(C)c3c(NCCOCCO)c2c1` are -1.14 °C and 0.8 °C.
Regarding `CCCn1/c(=N/C(=O)c2cccc(C(N)=O)c2)[nH]c2ccccc21`, the thermal shift (ΔTm) on Peregrin (Homo sapiens) was -1.26 °C; in assay [1], 0.22 °C.
For `Nc1ncnc2c1ncn2[C@@H]1O[C@H](C[C@@H](N)CC[C@H](N)C(=O)O)[C@@H](O)[C@H]1O`, the shift in melting temperature (ΔTm) was -1.27 °C on Peregrin (Homo sapiens) and -1.33 °C in assay [1].
The corresponding values for `N#Cc1ccc(-c2csc(NN=C3CCCC3)n2)cc1` are -0.85 °C and 0.36 °C.
The corresponding values for `O=C(O)CCNC(=S)NCCCC[C@H](NS(=O)(=O)c1cccc(F)c1)C(=O)N[C@@H](Cc1c[nH]c2ccccc12)C(=O)NC1CCC1` are 1.86 °C and -0.15 °C.
The matching figures for `CCN(CC)CCCC[C@H](NC(=O)[C@H](CC(C)C)NC(=O)[C@H](C)NC(=O)[C@H](Cc1ccccc1)NC(=O)c1ccc(C(C)(C)C)cc1)C(=O)N[C@@H](CO)C(=O)OC` ({Benzoyl(4-tBu)}-FAL[Lys(Et2)]S-OMe): -1.51 °C and 0.43 °C.
`CC(=O)N[C@@H](CC(=O)O)C(=O)N[C@@H](CCC(=O)O)C(=O)N[C@H](C(=O)N[C@H](C=O)CC(=O)O)C(C)C`: the ΔTm on Peregrin (Homo sapiens) is -1.4 °C; in assay [1], -0.22 °C.
The matching figures for `Oc1nc(-c2ccc(C(F)(F)F)cc2)nc2c1CSCC2`: 0.57 °C and -0.47 °C.
The corresponding values for `CCS(=O)(=O)N1CC(CC#N)(n2cc(-c3ncnc4[nH]ccc34)cn2)C1` are -1.09 °C and 1.48 °C.
The matching figures for `O=C1C(=O)N(Cc2ccccc2)c2ccc(S(=O)(=O)N3CCC[C@H]3COc3ccc(C(F)(F)F)cc3)cc21`: -2.14 °C and 1.01 °C.
With `Nc1ncnc2c1nc(NCc1ccc(-c3ccccc3)cc1)n2[C@@H]1O[C@H](CO)[C@@H](O)[C@H]1O`, the shift in melting temperature (ΔTm) was 0.29 °C at Peregrin (Homo sapiens) and 0.12 °C in assay [1].
Take `COC[C@@H]1CCCN1S(=O)(=O)c1ccc2c(c1)C(=O)C(=O)N2`: the ΔTm is -0.85 °C at Peregrin (Homo sapiens) and 0.48 °C in assay [1].
The matching figures for `CC(C)(C)c1ccc(S(=O)(=O)NCc2ccc(C(=O)Nc3cccnc3)cc2)cc1`: -0.61 °C and -0.54 °C.
The corresponding values for `Cc1ccsc1C(=CCCN1CCC[C@@H](C(=O)O)C1)c1sccc1C` are 0.44 °C and 0.37 °C.
The corresponding values for `COc1cc2c(cc1-c1c(C)noc1C)[nH]c1nc(C)nc(Nc3cc(C4CC4)nn3C)c12` are 1.07 °C and -0.94 °C.
For `CCCC1O[C@@H]2C[C@H]3[C@@H]4CCC5=CC(=O)C=C[C@]5(C)[C@H]4[C@@H](O)C[C@]3(C)[C@]2(C(=O)CO)O1` (some centres not stated), the ΔTm was -1.04 °C on Peregrin (Homo sapiens) and -0.77 °C in assay [1].
The corresponding values for `CN(C)CCCN(CC[C@H](N)C(=O)O)C[C@H]1O[C@@H](n2cnc3c(N)ncnc32)[C@H](O)[C@@H]1O` are -1.18 °C and -1.19 °C.
The matching figures for `CCN(CCN(C)C)C(=O)CNCc1cc(C(N)=O)ccn1`: -1.31 °C and 0.97 °C.
With `O=C(C1CC1)N1CC[C@@H](Cc2n[nH]c(=O)n2-c2ccc(-c3ccc4occc4c3)cc2)C1`, the thermal shift (ΔTm) at Peregrin (Homo sapiens) was -1.32 °C and 0.92 °C; in assay [1], 0.63 °C and -0.68 °C.
On to `COc1ccc(C(=O)C2CCN(CC(=O)N(Cc3nc4c(c(=O)[nH]3)COCC4)CC3CC3)CC2)cc1`, for which the values for the ΔTm (on Peregrin (Homo sapiens); in assay [1]) were 2.73 °C and -0.62 °C, respectively.
The matching figures for `CN(Cc1cccc(-c2ccncc2)c1)C(=O)Oc1ccc(-c2ccc(C(N)=O)cc2)cc1`: 2.09 °C and 0.69 °C.
The matching figures for `O=C(c1cccc(-c2ccc(-c3cn(C(=O)N4CCCCC4c4ccccc4)nn3)cc2)c1)N1CCCCC1` (configuration not stated): 3.63 °C and 2.55 °C.
The corresponding values for `CCCC[C@@H](C=O)NC(=O)[C@H](CC(C)C)NC(=O)[C@H](CC(C)C)NC(C)=O` (Ac-Leu-Leu-[Nle]-aldehyde) are -1.4 °C and 0.84 °C.
For the compound `Fc1ccc(C(OCCN2CCN(CCCc3ccccc3)CC2)c2ccc(F)cc2)cc1`, the ΔTm was 0.78 °C at Peregrin (Homo sapiens) and -0.47 °C in assay [1].
Take `Cn1cc(-c2ccncc2)c(-c2ccc(OCc3ccc4ccccc4n3)cc2)n1`: the ΔTm was found to be 0.25 °C at Peregrin (Homo sapiens) and 0.48 °C in assay [1].
The corresponding values for `CCCCCCCC(=O)N[C@H](CN1CCCC1)[C@H](O)c1ccc2c(c1)OCCO2` are 1.02 °C and 0.38 °C.
The corresponding values for `O=C(O)CCNc1cc(N2CCc3ccccc3CC2)nc(-c2ccccn2)n1` are 0.6 °C and 0.4 °C.
For `C=CCn1c(N[C@@H]2C[C@H](c3ccc(OCc4ccccc4)cc3)CN(C)C2)nc2cc[nH]c2c1=O`, the ΔTm at Peregrin (Homo sapiens) came to 3.96 °C; in assay [1], 0.37 °C.
The corresponding values for `CNC(=O)c1cc(C(=O)NC2CC2)cn(Cc2ccccc2)c1=O` are 0.73 °C and -1.38 °C.
The matching figures for `O=C(NC(Cc1ccccc1)C(=O)NC(Cc1ccccc1)C(=O)CF)OCc1ccccc1` (stereo not drawn) (Cbz-Phe-Phe-CH2F; configuration not given here): 1.77 °C and 0.39 °C.
Turning to `CS(=O)(=O)Nc1ccc(-c2coc3cc(OCc4cccc(C(=O)O)c4)ccc3c2=O)cc1`, the thermal shift (ΔTm) is 1.08 °C on Peregrin (Homo sapiens) and -0.06 °C in assay [1].
The corresponding values for `COc1ccc(N2CCN(C(=O)c3cc4c(s3)-c3ccccc3S(=O)(=O)C4)CC2)cc1` are 0 °C and 0.24 °C.
On to `O=C(Nc1ccccc1C(=O)O)c1cc(S(=O)(=O)c2ccccc2)ccc1Cl`, for which the ΔTm at Peregrin (Homo sapiens) is 0.95 °C; in assay [1], -0.48 °C.
The matching figures for `Cn1cc(NC(=O)c2cc(F)cc(F)c2)c(C(=O)NC2CCNCC2)n1`: -1.44 °C and 0.66 °C.
The matching figures for `CC(C)NC(=O)c1ccc(OC(F)F)c(OCC2CC2)c1`: 0.69 °C and 0.29 °C.
The matching figures for `N#Cc1ccc(N2N=C3c4ccc(C(=O)O)cc4CC[C@@H]3[C@@H]2C2CCCC2)cc1Cl`: -8.37 °C and -1.06 °C.
`CN(C)CC(c1ccc(O)cc1)C1(O)CCCCC1` (configuration not stated): the results for the ΔTm (at Peregrin (Homo sapiens); in assay [1]) were -1.07 °C and -0.09 °C, respectively.
The matching figures for `COc1ccc(CNc2nc(N3CCC[C@H]3CO)ncc2C(=O)NCc2ncccn2)cc1Cl`: 0.12 °C and -0.2 °C.
As for `CC(C)(O)c1ccc(N2Cc3c(ccnc3-c3ccc(F)cc3OCC(F)(F)F)C2=O)cc1`, the shift in melting temperature (ΔTm) at Peregrin (Homo sapiens) is -1.27 °C; in assay [1], -4.87 °C.
The corresponding values for `Cc1cccc(Nc2ccncc2S(=O)(=O)NC(=O)NC(C)C)c1` are 0.33 °C and -0.51 °C.
The corresponding values for `Cc1cnc(-c2ccccc2C(C)C)nc1NCc1ccc(-n2ccnn2)cc1` are -1.14 °C and -0.47 °C.
The corresponding values for `Cc1cc(C)nc(SCC(=O)Nc2ncc(Cc3cccc4ccccc34)s2)n1` are 3 °C and -1.85 °C.
`CCCNC(=O)[C@H]1O[C@@H]1C(=O)N[C@H](C(=O)N1CCC[C@H]1C(=O)O)[C@@H](C)CC`: the values for the shift in melting temperature (ΔTm) (at Peregrin (Homo sapiens); in assay [1]) were -2.2 °C and 0.07 °C, respectively.
The corresponding values for `CC/C(=C(/CC)c1ccc(O)cc1)c1ccc(O)cc1` are -8.49 °C and -8.29 °C.
With `CCc1c(C)nc(-c2ccc(Cl)s2)nc1Nc1ccc(CC(=O)O)cc1`, the thermal shift (ΔTm) at Peregrin (Homo sapiens) was 1.24 °C; in assay [1], -0.19 °C.
The corresponding values for `O=C(Cc1ccccc1)c1cc(O)c(O)c([N+](=O)[O-])c1` are 0.33 °C and 0.57 °C.
The matching figures for `CN1C[C@@H]2[C@H](C1)[C@H]2CN(Cc1ccc(F)c(Cl)c1)C(=O)c1cn(C)cn1`: 1.67 °C and 0.05 °C.
The corresponding values for `N[C@@H](CCNCc1ccc(Cl)cc1)C(=O)N1CCCCC1` are 0.85 °C and -0.56 °C.
For `CS(=O)(=O)c1ncn2c(NCc3c(F)ccc4c3CCO4)ncc(-c3ccc(C4CC4)nc3)c12`, the ΔTm at Peregrin (Homo sapiens) is -0.81 °C; in assay [1] it was -0.76 °C.

What is called ΔTm is the change in melting temperature against a reference sample.
